This note sets out measurements from ChEMBL document CHEMBL2163231, “Synthesis and antituberculosis activity of novel unfolded and macrocyclic derivatives of ent-kaurane steviol” (2012).

Values after ≈ are worked out from the molar mass of the structure shown.

For the experiment, the system named is Mycobacterium tuberculosis. As to the kind of experiment: Antituberculosis activity against Mycobacterium tuberculosis H37Rv. Format: functional.
For `C[C@H]1C[C@@]23CC[C@H]4[C@@](C)(CCC[C@@]4(C)C(=O)O)[C@@H]2CC[C@]1(O)C3`, the minimal inhibitory concentration (MIC) stood at 20 µg/mL (≈ 62.4 µM).

Molecule `C[C@]12CC[C@H]3[C@](CC[C@@H]4[C@]3(C)CCC[C@]4(C)C(=O)O)(C[C@@H]1OC(=O)CC(=O)O[C@@H]1C[C@]34CC[C@H]5[C@@](C)(CCC[C@@]5(C)C(=O)O)[C@@H]3CC[C@@]1(C)C4)C2` came in with an MIC of 12.5 µg/mL (≈ 17.6 µM).

As for `C[C@]12CC[C@H]3[C@](CC[C@@H]4[C@]3(C)CCC[C@]4(C)C(=O)O)(C[C@@H]1OC(=O)CCCCCCC(=O)O[C@@H]1C[C@]34CC[C@H]5[C@@](C)(CCC[C@@]5(C)C(=O)O)[C@@H]3CC[C@@]1(C)C4)C2`, the MIC turned out to be 12.5 µg/mL (≈ 16 µM).

`C[C@]12CC[C@H]3[C@](CC[C@@H]4[C@]3(C)CCC[C@]4(C)C(=O)O)(C[C@@H]1OC(=O)CCCCCCCCC(=O)O[C@@H]1C[C@]34CC[C@H]5[C@@](C)(CCC[C@@]5(C)C(=O)O)[C@@H]3CC[C@@]1(C)C4)C2` came in with an MIC of 12.5 µg/mL (≈ 15.5 µM).

As to `C[C@]12CC[C@H]3[C@@]4(CC[C@@H]5[C@]3(C)CCC[C@]5(C)C(=O)OCCCOC(=O)CC(=O)OCCCOC(=O)[C@]3(C)CCC[C@@]5(C)[C@@H]6CC[C@@]7(C)C[C@]6(CC[C@@H]53)C[C@H]7OC(=O)CCCCCCCCC(=O)O[C@H]1C4)C2`, 1 µg/mL (≈ 1.01 µM) was the least that counted as inhibitory (MIC).

`C[C@@H]1C[C@]23CC[C@@H]4[C@](C)(CCC[C@]4(C)C(=O)O)[C@H]2CC[C@@]1(OC(=O)CC(=O)O[C@]12CC[C@@H]4[C@](CC[C@H]5[C@@]4(C)CCC[C@@]5(C)C(=O)O)(C[C@@H]1C)C2)C3`: inhibition of growth (MIC) required 5 µg/mL (≈ 7.05 µM).

On to `C[C@@H]1C[C@]23CC[C@@H]4[C@](C)(CCC[C@]4(C)C(=O)O)[C@H]2CC[C@@]1(OC(=O)CCCCCCC(=O)O[C@]12CC[C@@H]4[C@](CC[C@H]5[C@@]4(C)CCC[C@@]5(C)C(=O)O)(C[C@@H]1C)C2)C3`, for which 20 µg/mL (≈ 25.7 µM) was the least that counted as inhibitory (MIC).

For `C[C@@H]1C[C@]23CC[C@@H]4[C@](C)(CCC[C@]4(C)C(=O)O)[C@H]2CC[C@@]1(OC(=O)CCCCCCCCC(=O)O[C@]12CC[C@@H]4[C@](CC[C@H]5[C@@]4(C)CCC[C@@]5(C)C(=O)O)(C[C@@H]1C)C2)C3`, the MIC was 20 µg/mL (≈ 24.8 µM).

`C[C@@H]1C[C@]23CC[C@@H]4[C@]5(C)CCC[C@]4(C)C(=O)OC(=O)[C@]4(C)CCC[C@@]6(C)[C@@H]7CC[C@@]8(C[C@@]7(CC[C@@H]64)C[C@@H]8C)OC(=O)CCCCCCCCC(=O)O[C@]1(CC[C@@H]25)C3` gave an MIC of 5 µg/mL (≈ 6.34 µM).

The molecule `C[C@@H]1C[C@]23CC[C@@H]4[C@](C)(CCC[C@]4(C)C(=O)O)[C@H]2CC[C@@]1(OC(=O)CCCCCCCCC(=O)O)C3` yielded an MIC of 10 µg/mL (≈ 19.8 µM).

`C[C@@H]1C[C@]23CC[C@@H]4[C@]5(C)CCC[C@]4(C)C(=O)OCCCOC(=O)CC(=O)OCCCOC(=O)[C@]4(C)CCC[C@@]6(C)[C@@H]7CC[C@@]8(C[C@@]7(CC[C@@H]64)C[C@@H]8C)OC(=O)CCCCCCCCC(=O)O[C@]1(CC[C@@H]25)C3` showed an MIC of 20 µg/mL (≈ 20.2 µM).

`NNC(=O)c1ccncc1` [ISONIAZID] gave an MIC of 1 µg/mL (≈ 7.29 µM).

Take `C[C@@]12CC[C@@H]3[C@@](CC[C@H]4[C@@]3(C)CCC[C@@]4(C)C(=O)O)(CC1=O)C2` [ISOSTEVIOL]: it took 50 µg/mL (≈ 157 µM) to inhibit growth (MIC).
